From ChEMBL document CHEMBL1122129, “Estrogenic and antiestrogenic activity of monophenolic analogues of tamoxifen, (Z)-2-[p-(1,2-diphenyl-1-butenyl)phenoxy]-N, N-dimethylethylamine” (J Med Chem, 1982)

Experiments:
[1] = target: T1, Estrogen receptor (Rattus norvegicus) (UniProt P06211+Q62986)
Description: Anti-uterotrophic effect in rats at 50 ug/animal/day in the presence of 0.5 ug estradiol benzoate

[2] = target: T1, Estrogen receptor (Rattus norvegicus); details: Uterus
Description: Uterotrophic effect in rats at 50 ug/animal/day hydroxytamoxifen

`C[C@]12CC[C@@H]3c4ccc(OC(=O)c5ccccc5)cc4CC[C@H]3[C@@H]1CC[C@@H]2O` showed an Antiuterotropic effect [1] of 21.6 and a Uterotropic effect [2] of 24.

With `CC/C(=C(\c1ccccc1)c1ccc(OCCN(C)C)cc1)c1cccc(O)c1` the Antiuterotropic effect [1] was 15.7 and the Uterotropic effect [2] was 10.1.

`CC/C(=C(/c1ccc(OCCN(C)C)cc1)c1cccc(O)c1)c1ccccc1` was tested, and the Antiuterotropic effect [1] was 16.7 and the Uterotropic effect [2] was 6.7.

With `CC/C(=C(/c1ccccc1)c1ccc(OCCN(C)C)cc1)c1cccc(O)c1` the Antiuterotropic effect [1] was 19.7 and the Uterotropic effect [2] was 5.7.

Work on `CC/C(=C(/c1ccccc1)c1ccc(OCCN(C)C)cc1)c1ccc(O)cc1` yielded an Antiuterotropic effect [1] of 15.7 and a Uterotropic effect [2] of 11.
